Assay results taken from patent US6713475B2, “Tricyclic benzodiazepines as vasopressin receptor antagonists” (Ortho-McNeil Pharmaceutical, Inc., priority 1999, dated 2004).

How the values were obtained:
[1] = target: V2 (Homo sapiens, UniProt P30518); experiment: In vitro recombinant vasopressin receptor binding assay (V2 Bdg), displacement of 3H-arginine vasopressin; set-up: expressed in transfected cells; host or cells: HEK-293; details: for IC50: membrane with cloned human V-2 receptor (HEK-293); for V2 Bdg % inh: 0.1 uM, printed in parentheses in place of IC50
Protocol: (§1) In vitro Recombinant Vasopressin Receptor Binding Assay
Compounds were assessed for their ability to displace ^3H-arginine vasopressin from the human V-1 or V-2 receptor in HEK-293 cells. […] Into wells of 96-well round bottom polypropylene plates were added buffer, test compound, membrane (containing cloned human V-1 or V-2 receptor), and ^3H-vasopressin. The reaction plates were allowed to sit at room temperature for one hour. The samples were filtered through Unifilter GF/C plates (presoaked in 0.3 polyethyleneimine). The plates were washed 5 times with cold physiological saline containing 0.05% Tween 20. After drying, the bottom of the filter plates were sealed and 0.025 ml of Microscint-20 was added to each filter. The top of the plate was sealed, and the plate was counted.

[2] = target: T1, human V-1 receptor (Homo sapiens, UniProt P37288); experiment: In vitro recombinant vasopressin receptor binding assay (V1 Bdg), displacement of 3H-arginine vasopressin; details: for inhibition at 0.1 µM: read-out: V1 Bdg (% inh, 0.1 uM)
T1 construct: expressed in transfected cells; host or cells: HEK-293
Protocol: as §1
Compounds were assessed for their ability to displace ^3H-arginine vasopressin from the human V-1 or V-2 receptor in HEK-293 cells. Assay buffer is 50 mM Tris-Cl, 5 mM MgCl2, 0.1% BSA (pH 7.5) containing 5 ug/ml of aprotinin, leupeptin, pepstatin, 50 ug/ml bacitracin, and 1 mM Pefabloc. ^3H-vasopressin is ^3H-arginine-8-vasopressin (68.5 Ci/mmol, final concentration in assay is 0.65-0.75 nM). Into wells of 96-well round bottom polypropylene plates were added buffer, test compound, membrane (containing cloned human V-1 or V-2 receptor), and ^3H-vasopressin. The reaction plates were allowed to sit at room temperature for one hour. The samples were filtered through Unifilter GF/C plates (presoaked in 0.3 polyethyleneimine). The plates were washed 5 times with cold physiological saline containing 0.05% Tween 20. After drying, the bottom of the filter plates were sealed and 0.025 ml of Microscint-20 was added to each filter. The top of the plate was sealed, and the plate was counted. Non-specific binding was determined by the addition of 1.25 uM arginine-8-vasopressin in those wells.

T1 sequence (P37288 whole entry): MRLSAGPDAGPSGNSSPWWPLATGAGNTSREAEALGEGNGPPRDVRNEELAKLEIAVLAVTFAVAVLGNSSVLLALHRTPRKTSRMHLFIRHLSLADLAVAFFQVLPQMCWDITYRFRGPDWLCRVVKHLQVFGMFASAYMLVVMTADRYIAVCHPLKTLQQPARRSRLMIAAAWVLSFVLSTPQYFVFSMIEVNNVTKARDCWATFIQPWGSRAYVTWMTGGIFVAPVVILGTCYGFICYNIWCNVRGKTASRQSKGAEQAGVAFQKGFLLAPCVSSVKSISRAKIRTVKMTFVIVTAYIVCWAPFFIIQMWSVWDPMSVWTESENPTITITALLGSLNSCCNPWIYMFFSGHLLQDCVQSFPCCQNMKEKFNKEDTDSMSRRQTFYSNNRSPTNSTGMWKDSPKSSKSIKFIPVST

Compound	IC50 [1]	inhibition at 0.1 µM [2]	V2 Bdg % inh [1]	V1 Bdg % inh ([2]; 1 uM)	also measured
Cc1ccc2c(c1)CN1CCSCC1CN2C(=O)c1ccc(NC(=O)c2ccccc2-c2ccccc2)cc1 (racemic) [Compound 36, (RS)-2-Phenyl-N-[4-(8-methyl-1,3,4,12a-tetrahydro-6H-[1,4]thiazino[4,3-a][1,4]-benzodiazepin-11(12H)-yl-carbonyl)phenyl]benzamide]	18 nM	76%			
CN1CCN2Cc3ccccc3N(C(=O)c3ccc(NC(=O)c4cc(F)ccc4-c4ccccc4)cc3Cl)CC2C1 (racemic) [Compound 100, (RS)-2-Phenyl-5-fluoro-N-[3-chloro-4-(1,3,4,12a-tetrahydro-2-methyl-6H-[1,4]pyrazino[4,3-a][1,4]-benzodiazepin-11(12H)-yl-carbonyl)phenyl]benzamide]	37 nM				inhibition at 0.1 µM ([1]; read-out: V2 Bdg % inh): 72%; inhibition at 1 µM ([2]; 1 uM, read-out: V1 Bdg % inh): 6%
(RS)-2-(2-Fluoro-phenyl)-N-[4-(1,3,4,12a-tetrahydro-6H-[1,4]thiazino[4,3-a][1,4]-benzodiazepin-11(12H)-yl-carbonyl)phenyl]benzamide [Compound 45]			(69%/0.1 uM)		V1 Bdg (% inh, 0.1 uM) [2]: 15%
Cc1ccc(-c2ccccc2C(=O)Nc2ccc(C(=O)N3CC4COCCN4Cc4ccccc43)c(C)c2)cc1 (racemic) [Compound 28, (RS)-2-(4-Methyl-phenyl)-N-[3-methyl-4-(1,3,4,12a-tetrahydro-6H-[1,4]oxazino[4,3-a][1,4]-benzodiazepin-11(12H)-yl-carbonyl)phenyl]benzamide]	10 nM	14%			
Cc1cc(NC(=O)c2ccccc2-c2ccccc2)ccc1C(=O)N1CC2CN(C)CCN2Cc2ccccc21 (racemic) [Compound 89, (RS)-2-Phenyl-N-[3-methyl-4-(1,3,4,12a-tetrahydro-2-methyl-6H-[1,4]pyrazino[4,3-a][1,4]-benzodiazepin-11(12H)-yl-carbonyl)phenyl]benzamide]			(56%/0.1 uM)	(51%/1 uM)	
COc1ccc(-c2ccccc2C(=O)Nc2ccc(C(=O)N3CC4CN(C)CCN4Cc4ccccc43)c(Cl)c2)cc1 (racemic) [Compound 67, (RS)-2-(4-Methoxy-phenyl)-N-[3-chloro-4-(1,3,4,12a-tetrahydro-2-methyl-6H-[1,4]pyrazino[4,3-a][1,4]-benzodiazepin-11(12H)-yl-carbonyl)phenyl]benzamide]			(36%/0.1 uM)	(14%/1 uM)	
Cc1ccccc1C(=O)Nc1ccc(C(=O)N2CC3COCCN3Cc3ccccc32)cc1 (racemic) [Compound 26, (RS)-2-Methyl-N-[4-(1,3,4,12a-tetrahydro-6H-[1,4]oxazino[4,3-a][1,4]-benzodiazepin-11(12H)-yl-carbonyl)phenyl]benzamide]			(65%/0.1 uM)		V1 Bdg (% inh, 0.1 uM) [2]: 58%
Cc1cccc(C)c1C(=O)Nc1ccc(C(=O)N2CC3COCCN3Cc3ccccc32)c(Cl)c1 (racemic) [Compound 10, (RS)-2,6-Dimethyl-N-[3-chloro-4-(1,3,4,12a-tetrahydro-6H-[1,4]oxazino[4,3-a][1,4]-benzodiazepin-11(12H)-yl-carbonyl)phenyl]benzamide]	9 nM	15%			
O=C(Nc1ccc(C(=O)N2CC3COCCN3Cc3ccccc32)c(Cl)c1)c1cc(F)c(F)c(F)c1F (racemic) [Compound 16, (RS)-2,3,4,5-Tetrafluoro-N-[3-chloro-4-(1,3,4,12a-tetrahydro-6H-[1,4]oxazino[4,3-a][1,4]-benzodiazepin-11(12H)-yl-carbonyl)phenyl]benzamide]	25 nM	20%			
Cc1c(F)cccc1C(=O)Nc1ccc(C(=O)N2CC3CN(C)CCN3Cc3ccccc32)c(Cl)c1 (racemic) [Compound 102, (RS)-2-Methyl-3-fluoro-N-[3-chloro-4-(1,3,4,12a-tetrahydro-2-methyl-6H-[1,4]pyrazino[4,3-a][1,4]-benzodiazepin-11(12H)-yl-carbonyl)phenyl]benzamide]			(20%/0.1 uM)	(12%/1 uM)	
CN1CCN2Cc3ccccc3N(C(=O)c3ccc(NC(=O)c4ccccc4-c4ccccc4)cc3F)CC2C1 (racemic) [Compound 70, (RS)-2-Phenyl-N-[3-fluoro-4-(1,3,4,12a-tetrahydro-2-methyl-6H-[1,4]pyrazino[4,3-a][1,4]-benzodiazepin-11(12H)-yl-carbonyl)phenyl]benzamide]			(44%/0.1 uM)	(9%/1 uM)	
Cc1ccccc1C(=O)Nc1ccc(C(=O)N2CC3CN(C)CCN3Cc3ccccc32)cc1 (racemic) [Compound 86, (RS)-2-Methyl-N-[4-(1,3,4,12a-tetrahydro-2-methyl-6H-[1,4]pyrazino[4,3-a][1,4]-benzodiazepin-11(12H)-yl-carbonyl)phenyl]benzamide]			(1%/0.1 uM)	(33%/1 uM)	
COc1cc(NC(=O)c2ccccc2-c2ccccc2)ccc1C(=O)N1CC2CN(C)CCN2Cc2ccccc21 (racemic) [Compound 84, (RS)-2-Phenyl-N-[3-methoxy-4-(1,3,4,12a-tetrahydro-2-methyl-6H-[1,4]pyrazino[4,3-a][1,4]-benzodiazepin-11(12H)-yl-carbonyl)phenyl]benzamide]			(36%/0.1 uM)	(10%/1 uM)	
Cc1cccc(C(=O)Nc2ccc(C(=O)N3CC4COCCN4Cc4ccccc43)c(Cl)c2)c1C (racemic) [Compound 11, (RS)-2,3-Dimethyl-N-[3-chloro-4-(1,3,4,12a-tetrahydro-6H-[1,4]oxazino[4,3-a][1,4]-benzodiazepin-11(12H)-yl-carbonyl)phenyl]benzamide]	8 nM	11%			
O=C(Nc1ccc(C(=O)N2C[C@H]3COCCN3Cc3ccccc32)c(Cl)c1)c1ccccc1-c1ccc(O)cc1 [Compound 5, (S)-2-(4-Hydroxyphenyl)-N-[3-chloro-4-(1,3,4,12a-tetrahydro-6H-[1,4]oxazino[4,3-a][1,4]-benzodiazepin-11(12H)-yl-carbonyl)phenyl]benzamide]	9 nM	29%			
O=C(Nc1ccc(C(=O)N2CC3COCCN3Cc3ccccc32)c(O)c1)c1ccccc1-c1ccccc1 (racemic) [Compound 23, (RS)-2-Phenyl-N-[3-hydroxy-4-(1,3,4,12a-tetrahydro-6H-[1,4]oxazino[4,3-a][1,4]-benzodiazepin-11(12H)-yl-carbonyl)phenyl]benzamide]	10 nM	33%			
Cc1cc(C(=O)N2CC3CN(C)CCN3Cc3ccccc32)ccc1NC(=O)c1ccccc1-c1ccccc1 (racemic) [Compound 78, (RS)-2-Phenyl-N-[2-methyl-4-(1,3,4,12a-tetrahydro-2-methyl-6H-[1,4]pyrazino[4,3-a][1,4]-benzodiazepin-11(12H)-yl-carbonyl)phenyl]benzamide]			(5%/0.1 uM)	(2%/1 uM)	
Cc1ccccc1C(=O)Nc1ccc(C(=O)N2CC3COCCN3Cc3ccccc32)c(Cl)c1 (racemic) [Compound 24, (RS)-2-Methyl-N-[3-chloro-4-(1,3,4,12a-tetrahydro-6H-[1,4]oxazino[4,3-a][1,4]-benzodiazepin-11(12H)-yl-carbonyl)phenyl]benzamide]	16 nM	34%			
